In US20250214973A1, “1,4,5-TRISUBSTITUTED-1,2,3-TRIAZOLES AND USES THEREOF” (UNIVERSITY OF PUERTO RICO, priority 2022, published 2025):

Assays:
[1] = test system: MDA-MB-231; assay: Initial screening, inhibition of migration (wound gap); format: cell-based; conditions: Homo sapiens; for inhibition at 0.5 µM: read-out: Inh. of migration (converted)
Protocol: In addition, the inhibition of migration of MDA-MB-231 was determined via the following procedure:
Prior to assays, cells were grown until 80-90% confluence was observed. We used a 75 cm^2 flask for 2.6×10^5 cells/mL in 10 mL and for a 25 cm^2 flask 1.44×10^5 cells/mL in 5 mL. The cells were washed with PBS to remove all traces of FBS. We added 2 mL for a 25 cm^2 flasks or 4 mL for a 75 cm^2 flasks trypsin, and incubated 5-10 min at 37° C. At the end of the incubation time, cells were re-suspended and counted with hemocytometer using 1:2 dilutions with Trypan blue. Subsequently, cell viability was calculated. In a 12 well tissue culture plate, we used the plastic pattern to draw a fine space with a fine marker on the bottom of the plate. Cells were seeded at 1.5-2.2×10^5 cells/mL in 1 mL and incubated for 24 h. Cells were then rinsed with PBS and incubated in starving media (0.5% FBS) overnight. All controls and drugs were tested in triplicate. The negative control for each drug was prepared according to the drug's DMSO concentration. […] The wound was made using a sterile pipette tip of 200 μL. Cells were then rinsed very gently with media without FBS and media with negative controls was added. After a 24 h incubation, the gap distance was evaluated using the software Lumera Infinity Analyze 6.4.0. Pictures were taken at 0, 8, 12 and 24 h using a 10× objective in an Inverted Laboratory Microscope Leica DM IL LED, and an Infinity1-3 3.1 Megapixel USB 2.0 camera CMOS. The percentage of migration was calculated using the following formula: […]

[2] = test system: MDA-MB-435; assay: Initial screening, SRB assay GI50; format: cell-based; conditions: Homo sapiens, 48 hrs, read-out: MDA-MB435 GI50
Protocol: (§1) For initial screening, the GIso of compounds 4a-4h in the cell lines MDA-MB-231, MDA-MB-435 and MCF-7 was determined via the SRB-assay for 48 hrs as follows:
(§2) A stock solution of compounds was prepared at 50 mM in 100% DMSO. For cells preparation, a flask of 75 cm^2 or 25 cm^2 were used for 2.6×10^5 cells/mL or 1.44×10^5 cells/mL, respectively, with an 80-90% of confluence. Cells were washed with PBS and trypsinized. The concentration of cells was determined using a 1:2 dilutions with Trypan Blue and a hemocytometer. After cell count, the concentration was adjusted to have a 7.0-10.0×10^4 cells/mL. Approximately 100 μL of cells suspension, compounds, control positive and control negative were added in triplicates to a 96 well plate. Positive control used was doxorubicin, and the negative control was DMSO 0.1%. All compounds (4a-h) at 50, 25, 12.5, 6.3, and 1.6 μM were incubated with cells at 37° C. for 48 hrs. For fixation, cold TCA 50% was used and incubated at 4° C. for 1 h. Wells were washed and dried prior to tincture with 100 μL of SRB 0.4%. To remove excess of SRB, acetic acid was used. For analysis, TRIS-BASE Solution (pH=10.5) was used and shaken prior to reading using an ELISA reader at 540 nm and the software SoftMax Pro 4.8. For each compound, 50% growth inhibition (GI50) was calculated from Sigmoidal dose-response curves (variable-slope) that were generated with data obtained from experiments carried out in triplicates (GI50 values were generated with GraphPad Prism V. 6.02, GraphPad Software, Inc.).

[3] = test system: MCF-7; assay: Initial screening, SRB assay GI50; format: cell-based; conditions: Homo sapiens, MCF7, 48 hrs
Protocol: as §1, §2

[4] = test system: MDA-MB-231; assay: Initial screening, SRB assay GI50; format: cell-based; conditions: Homo sapiens, 48 hrs
Protocol: as §1, §2

[5] = test system: MDA-MB-435; assay: Cell viability assay (MTT); format: cell-based, human; conditions: for GI50: MTT, 72 hrs, read-out: GI50 MDA-MB-435; for GI50 / effect on viability of MDA-MB-435: 0-1000 nM; for effect on viability of MDA-MB-435: 72 h
Protocol: Cells plated at equal density were treated at 500 nM of compounds. After 72 hours, cell viability was measured by a MTT assay. n=3; * p<0.05, ** p<0.01, *** p<0.001.
(§3) Cells plated at equal density were treated at 250 nM of 4c at 250 nM.
(§4) Data from 3 biologic replicates each with 2 technical replicates. Four parameter dose-response curves generated using GraphPad Prism are shown.
[…]. GI50 was calculated using Graph pad Prism.
(§5) […] Using CellTiter 96 Non-Radioactive Cell Proliferation Assay (Promega, Corp.) according to manufactures' instructions, formazan was used as an indicator of viable cells at an absorbance 570 nm in a Tecan Microplate Reader M100. Data was calculated as fold change from vehicle and fitted using the 4′parameter logic nonlinear regression model in GraphPad Prism software. (n=3 biologic replicates: with 3 technical replicates each).
A range of compounds were tested by MTT assays for cell viability in MDA-MB-231 triple negative breast cancer (TNBC) cells and MDA-MB-435 HER2++ cancer cells. […].

[6] = test system: Rac; assay: Rac activation pulldown (GST-CRIB of PAK) in MDA-MB-435 cells; format: cell-based, human; conditions: 24 hours
Description: (§6) Cells were lysed and equal amounts of proteins were subjected to pull-down assays using a GST-fusion protein of the Cdc42-rac interactive binding (CRIB) domain of P21-activated kinase (PAK). The pulldowns of Rac.GTP and whole cell lysates were western blotted with a pan Rac1/2/3 antibody.
as §6

[7] = test system: MDA-MB-231; assay: Cell viability assay (MTT); format: cell-based; conditions: Homo sapiens; for inhibition at […]: MDA-MB-231, 250 nM for 48 hours (footnote a; title says 500 nM), read-out: % growth inhibition MDA-MB-231
Protocol: Cells plated at equal density were treated at 500 nM of compounds. […]
as §3, §4
Cell viability relative to vehicle (100%) is shown.
as §5
A range of compounds were tested by MTT assays for cell viability in MDA-MB-231 triple negative breast cancer (TNBC) cells and MDA-MB-435 HER2++ cancer cells.

[8] = biological target: T1, Vav2 binding to Rac1 (Homo sapiens, UniProt P63000, G15A); assay: Rac1 GEF assay, Rac1(G15A) pulldown; conditions: 8 μM, MDA-MB-231 lysates
T1 construct: purchased Cell Biolabs, San Diego; CA; host or cells: Vav2 from MDA-MB-231 cell lysate
Protocol: GST-Rac1 (G15A) beads were pre-incubated with vehicle (0.1% DMSO), or 8 μM EHop-016, or 250 nM Compound 4c for 1 hour followed by incubation with MDA-MB-231 cell lysates (equal total protein). Representative Western blot for Rac1(G15A) or pulldowns immunostained for Vav2 is shown (n=3).
MDA-MB-231 cells in culture medium were lysed in 1% Triton X-100, 20 mM HEPES, pH 7.4, 150 mM NaCl, 5 mm MgCl2, and protease inhibitors and processed. Equal amounts of protein from cleared lysates were incubated for 1 h at 4° C. with glutathione-agarose beads conjugated to GST-Rac1(G15A) nucleotide-free mutant (Cell Biolabs, San Diego. CA) that were preincubated (for 1 h) with vehicle or 8 μm EHop-016 or 0.25 μM Compound 4c. The beads were washed, and the lysates and pull-downs were immunoblotted for Tiam-1, Trio, Ect2, p-REX, or Vav2.

SMILES	GI50 [2] [µM]	GI50 [3] [µM]	GI50 [4] [µM]	GI50 ([5]; Homo sapiens, MDA-MB-435) [nM]	inhibition at 0.5 µM [1] [%]	inhibition at […] [7] [%]	effect on viability of MDA-MB-435 [5]	further results
CCn1c2ccccc2c2cc(-n3nnc(C#N)c3-c3ccccc3)ccc21 [Compound 5, 1-(9-ethyl-9H-carbazol-3-yl)-5-phenyl-1H-1,2,3-triazole-4-carbonitrile]				45		46		% Rac inhibition ([6]; 10 nM): ~30%; % Rac inhibition ([6]; 50 nM): > 90%; % Rac inhibition ([6]; 100 nM): > 90%; cytotoxicity at […] ([7]; 250 nM, 48h, text prints MDA-MB-435 TNBC, read-out: inhibition of cell viability): 50%; cytotoxicity relative to MBQ-167 ([5]; MDA-MB-435, 72 h GI50): ~3 ×
CCOC(=O)c1nnn(-c2ccc3c(c2)c2ccccc2n3CC)c1-c1ccccc1 [Compound 6, Ethyl 1-(9-ethyl-9H-carbazol-3-yl)-5-phenyl-1H-1,2,3-triazole-4-carboxylate]				~5000		32	reduced the viability	
CCn1c2ccccc2c2cc(-n3nnc(C(=O)O)c3-c3ccccc3)ccc21 [Compound 7, 1-(9-Ethyl-9H-carbazol-3-yl)-5-phenyl-1H-1,2,3-triazole-4-carboxylic acid]						29	reduced the viability	
CCn1c2ccccc2c2cc(-n3nnc(C(=O)N4CCOCC4)c3-c3ccccc3)ccc21 [Compound 8, (1-(9-ethyl-9H-carbazol-3-yl)-5-phenyl-1H-1,2,3-triazol-4-yl) (morpholino) methanone]				~1000		-11	did not have an effect	% Rac inhibition ([6]; 250 nM): 250 nM : <20%
CCn1c2ccccc2c2cc(-n3nnc(C(=O)NCCCN4CCOCC4)c3-c3ccccc3)ccc21 [Compound 9, 1-(9-ethyl-9H-carbazol-3-yl)-N-(3-morpholinopropyl)-5-phenyl-1H-1,2,3-triazole-4-carboxamide]				> 10000		13	reduced the viability	% Rac inhibition ([6]; 250 nM): 250 nM : <20%
CCn1c2ccccc2c2cc(-n3nnc(C(=O)c4cccs4)c3-c3ccccc3)ccc21 [Compound 10, (1-(9-Ethyl-9H-carbazol-3-yl)-5-phenyl-1H-[1,2,3]triazol-4-yl)-thiophen-2-yl-methanone]	23.3	0.19	0.915					
CCn1c2ccccc2c2cc(Nc3ccnc(NCCCN4CCOCC4)n3)ccc21 [EHop-016, reference compound]								inhibition of Vav2 binding to Rac1 [8]: ~80%

Continued, in another order:

GI50 [2] [µM]	GI50 [3] [µM]	GI50 [4] [µM]	GI50 ([5]; Homo sapiens, MDA-MB-435) [nM]	SMILES	inhibition at 0.5 µM [1] [%]	inhibition at […] [7] [%]	effect on viability of MDA-MB-435 [5]	further results
0.36	20.6	17.5		CCn1c2ccccc2c2cc(-n3nnc(C(O)c4ccco4)c3-c3ccccc3)ccc21 (centres unmarked) [Compound 4a, (1-(9-ethyl-9H-carbazol-3-yl)-5-phenyl-1H-1,2,3-triazol-4-yl) (furan-2-yl) methanol]				inhibition at 6.6 µM ([1]; at 6.6 μM, read-out: Inh. of migration): 55 ± 13.6%; cytotoxicity at 0.5 µM ([5]; Homo sapiens, MDA-MB-435, 500 nM, 72 hours, read-out: decrease in cell viability, MDA-MB-435): ~80%
19.6	12	20.4		CCn1c2ccccc2c2cc(-n3nnc(C(O)c4cccs4)c3-c3ccccc3)ccc21 (centres unmarked) [Compound 4d, (1-(9-ethyl-9H-carbazol-3-yl)-5-phenyl-1H-1,2,3-triazol-4-yl) (thiophen-2-yl) methanol]	8.7			inhibition at 4.1 µM ([1]; at 4.1 μM, read-out: Inh. of migration): 57.5 ± 10.6%
32.9	10.6	26.2		CCn1c2ccccc2c2cc(-n3nnc(C(O)c4ccc(OC)cc4)c3-c3ccccc3)ccc21 (centres unmarked) [Compound 4e, (1-(9-ethyl-9H-carbazol-3-yl)-5-phenyl-1H-1,2,3-triazol-4-yl) (4-methoxyphenyl) methanol]	36.1			inhibition at 5.3 µM ([1]; at 5.3 μM, read-out: Inh. of migration): 57 ± 12.3%
7.5	9.7	11.2		CCn1c2ccccc2c2cc(-n3nnc(C(O)c4ccc([N+](=O)[O-])cc4)c3-c3ccccc3)ccc21 (centres unmarked) [Compound 4f, (1-(9-ethyl-9H-carbazol-3-yl)-5-phenyl-1H-1,2,3-triazol-4-yl) (4-nitrophenyl) methanol]	22.1			inhibition at 2.2 µM ([1]; at 2.2 μM, read-out: Inh. of migration): 61.1 ± 6.12%
2.2	13.5	7.9		CCn1c2ccccc2c2cc(-n3nnc(C(O)c4ccc(C)cc4)c3-c3ccccc3)ccc21 (centres unmarked) [Compound 4g, (1-(9-ethyl-9H-carbazol-3-yl)-5-phenyl-1H-1,2,3-triazol-4-yl) (p-tolyl) methanol]				inhibition at 1.6 µM ([1]; at 1.6 μM, read-out: Inh. of migration): 15.1 ± 10.7%
22.6	9.6	24.3		CCn1c2ccccc2c2cc(-n3nnc(C(O)c4ccccc4)c3-c3ccccc3)ccc21 (centres unmarked) [Compound 4h, (1-(9-ethyl-9H-carbazol-3-yl)-5-phenyl-1H-1,2,3-triazol-4-yl) (phenyl) methanol]	11.1			inhibition at 4.9 µM ([1]; at 4.9 μM, read-out: Inh. of migration): 65.4 ± 11.9%
